{"source": "patent US4386074A", "about": "“LRF Antagonists” (The Salk Institute for Biological Studies, priority 1981, dated 1983)", "origin": "cited, not measured here", "tested_on": "release of LH and other gonadotropins by the pituitary gland", "details": "D-Ala6 versus Gly6 des-His2 peptide", "note": "[ ]: non-standard residue; d: D form. pGlu = O=C1CC[C@@H](C(=O)O)N1", "data": [{"substance": "[pGlu]WSY[dA]LRPG-NH2", "values": [{"measurement": "potency as inhibitor of the release of gonadotropins relative to the same peptide with Gly in the 6-position", "value": 4, "unit": "times"}]}]}
